Measurements reported in patent US12234240B2, “Substituted imidazo[5,1-d][1,2,3,5]tetrazines for the treatment of cancer” (The Board of Trustees of the University of Illinois, priority 2018, dated 2025).
Like-named read-outs stand apart in the source and are kept apart here.

How the values were obtained:
D54 cells = test: Cell viability, Alamar Blue, 7-day incubation, D54; assay type: cell-based; conditions: Homo sapiens, D54, 168 h, MGMT −, error SEM
Protocol: (§1) Anticancer activity of C8 substituted imidazotetrazines. With a suite of imidazotetrazines in hand, each compound was evaluated against a panel of human GBM cell lines (Table 1a, Table 1b).

T98G cells [1] = test: Cell viability, Alamar Blue, 7-day incubation, T98G; assay type: cell-based; conditions: Homo sapiens, 168 h, MGMT +, error SEM
Protocol: as §1

U87 cells = test: Cell viability, Alamar Blue, 7-day incubation, U87; assay type: cell-based; conditions: Homo sapiens, U-87 MG, 168 h, MGMT −, error SEM
Protocol: as §1

[2] = Mouse liver microsome stability assay; assay type: in vitro ADME; conditions: for Stability (2 h, Microsomes): percentage remaining relative to t0, error SEM, n ≥ 2
Protocol: (§2) Liver microsome stability.
(§3) Mouse Liver Microsome Stability Assay. A mixture of PBS (pH 7.4), NADPH regenerating system solution A (Corning Life Sciences), and NADPH regenerating system solution B (Corning Life Sciences) was incubated at 37° C. in a shaking incubator for 5 min. Next, compound was added in DMSO (final concentration 50 μM, 0.5% DMSO) before ice-cold mouse liver microsomes (Thermo Fisher, male CD-1 mice, pooled) were added (final protein concentration of 1 mg/mL). An aliquot was immediately removed, quenched with an equal volume of 100 μM internal standard and 0.5% hydrochloric acid in ice-cold acetonitrile, and centrifuged at 13,000 rcf for 3 min. The supernatant was diluted 1:5 in ddH2O and analyzed by LC-MS. The reactions were incubated at 37° C. in a shaking incubator for 2 h. A second aliquot was removed, quenched and diluted as before and analyzed by LC-MS. The ratio of the areas of analyte:internal standard at 2 hours was compared to the ratio at t0 to determine the percentage of compound remaining. Analysis was performed on an Agilent 6230 LC/MS TOF system with a 1.8 μm, 2.1×50 mm Agilent ZORBAX Eclipse Plus C18 column.

[3] = Stability in the absence of microsomes (microsomes replaced with PBS); assay type: physicochemical; conditions: liver microsomes replaced with PBS, percentage remaining relative to t0
Protocol: as §2, §3

T98G cells [4] = test: cells; assay type: cell-based; conditions: for IC50: Homo sapiens, 7-day incubation
Protocol: FIG. 4. Imidazotetrazines were added to T98G cells with or without 3 h pre-treatment of O6BG (100 μM). IC50 values after 7-day incubation and fold changes between (+/−) O6BG treatments are reported. […] Error is SEM, n≥3. Statistical significance was determined by using a two-sample Student's t-test (two-tailed test, assuming equal variance).

[5] = Assessment of hematological toxicity in vivo; conditions: mouse, in vivo, iv, 125 mg/kg
Protocol: Assessment of hematological toxicity. […] Both lymphocyte (FIG. 3b) and neutrophil (FIG. 8a) concentrations were decreased in TMZ-treated mice. […] Total WBC, lymphocyte, and neutrophil counts for mice treated with these compounds were equivalent to those of control mice.
Assessment of Hematological Toxicity. Male CD-1 IGS mice (n=4 mice/group) were administered a single dose of 125 mg/kg compound intravenously. Imidazotetrazines were formulated with SBEβCD in sterile water immediately prior to injection. Seven days post-treatment, mice were humanely sacrificed and whole blood was collected for assessment of total white blood cells, lymphocytes, neutrophils, platelets, and red blood cells.

[6] = Table 1b, read-out: 7-day IC50 D54
[7] = Table 1b, read-out: 7-day IC50 T98G
[8] = Table 1b, read-out: 7-day IC50 U87
[9] = Table 1a, 7 days, read-out: IC50 D54
[10] = Table 1a, 7 days, read-out: IC50 T98G
[11] = Table 1a, 7 days, n ≥ 3, read-out: IC50 U87

Structure (SMILES) | IC50 (T98G cells [1]; [7]) [µM] | IC50 (U87 cells; [8]) [µM] | IC50 (D54 cells; [9]) [µM] | IC50 (T98G cells [1]; [10]) [µM] | IC50 (U87 cells; [11]) [µM] | other results
Cn1nnc2c(Br)ncn2c1=O [Compound 18, 8-bromo-3-methylimidazo[5,1-d][1,2,3,5]tetrazin-4(3H)-one] | 60 ± 10 | 26 ± 7 | – | – | – | IC50 (D54 cells; [6]): 20 ± 1 µM
Cn1nnc2c(Cl)ncn2c1=O [Compound 19, 8-chloro-3-methylimidazo[5,1-d][1,2,3,5]tetrazin-4(3H)-one] | – | – | 21 ± 4 | 60 ± 10 | 15 ± 4 | Stability (2 h, Microsomes) [2]: 91 ± 3%; metabolic stability in words ([2]; mouse liver microsomes, 2 hours): generally stable to oxidative metabolism; Stability (2 h, No Microsomes) [3]: 91 ± 1%
Cn1nnc2c(-c3ccccc3)ncn2c1=O [Compound 23, 3-methyl-8-phenylimidazo[5,1-d][1,2,3,5]tetrazin-4(3H)-one] | – | – | 7 ± 1 | 14 ± 1 | 9 ± 1 | Stability (2 h, Microsomes) [2]: 44 ± 2%; Stability (2 h, No Microsomes) [3]: 103 ± 5%
Cn1nnc2c(-c3ccc(F)cc3)ncn2c1=O [Compound 24, 8-(4-fluorophenyl)-3-methylimidazo[5,1-d][1,2,3,5]tetrazin-4(3H)-one] | 18 ± 2 | 13 ± 2 | – | – | – | –
Cn1nnc2c(-c3ccc(C(F)(F)F)cc3)ncn2c1=O [Compound 25, 3-methyl-8-(4-(trifluoromethyl)phenyl)imidazo[5,1-d][1,2,3,5]tetrazin-4(3H)-one] | > 100 | 16 ± 1 | – | – | – | –
Cn1nnc2c(-c3ccc(Cl)cc3)ncn2c1=O [Compound 26, 8-(4-chlorophenyl)-3-methylimidazo[5,1-d][1,2,3,5]tetrazin-4(3H)-one] | 19 ± 3 | 9 ± 1 | – | – | – | IC50 (D54 cells; [6]): 7 ± 1 µM
Cc1cnc(-c2ncn3c(=O)n(C)nnc23)o1 [Compound 27, 3-methyl-8-(5-methyloxazol-2-yl)imidazo[5,1-d][1,2,3,5]tetrazin-4(3H)-one] | – | – | 9 ± 1 | 100 ± 20 | 27 ± 4 | IC50 (T98G cells [4]; 3 h pre-treatment with O6BG (100 μM)): 5 ± 1 µM; IC50 (T98G cells [4]; 168 h, without O6BG): 100 ± 20 µM; Fold Change (T98G cells [4]; between IC50 (+/−) O6BG): 20; Cohort weight 7 days Post [5]: 31.6 ± 0.3 g; myelosuppression / white blood cell effect [5]: did not produce myelosuppression
Cn1nnc2c(C(N)=S)ncn2c1=O [Compound 28, 3-methyl-4-oxo-3,4-dihydroimidazo[5,1-d][1,2,3,5]tetrazine-8-carbothioamide] | – | – | 8 ± 1 | 31 ± 4 | 9 ± 1 | –
